For nine molecules, TGI results are on record in PubChem BioAssay (NCI).

For orientation: TGI means the concentration at which net growth stops.

Holding throughout (test): DTP human tumour cell line panel, 48 h
Experiment [1] deals with UACC-62 melanoma.
Experiment [2] relates to MDA-MB-231 breast.
In experiment [3] the test system is HOP-92 NSCLC.
Experiment [4] has as its system SNB-19 CNS.
In experiment [5] the test system is EKVX NSCLC.
The test system of experiment [6] is SK-MEL-2 melanoma.
For experiment [7], the system named is MCF7 breast.
The test system of experiment [8] is CAKI-1 renal.
Experiment [9] deals with RPMI-8226 leukemia.
The test system of experiment [10] is RXF 393 renal.
Experiment [11] relates to SF-268 CNS.
In experiment [12] the test system is SNB-75 CNS.
The subject of experiment [13] is PC-3 prostate.
Experiment [14] concerns OVCAR-4 ovarian.
Experiment [15] deals with HCC-2998 colon.
Experiment [16] deals with UACC-257 melanoma.
For experiment [17], the system named is CCRF-CEM leukemia.
Experiment [18] concerns SR leukemia.

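Following 48 hours of exposure in 96-well plates, responses at five concentrations were used to interpolate endpoints linearly. At the TGI there is no net growth.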

On to `COC(=O)c1ccc(/C=N/c2cc(C)nn2-c2ccccc2)cc1`, for which the TGI in [1], in experiment [2], in experiment [3], in [4], in experiment [5] and in experiment [6] was more than 100 µM throughout. Moreover, the TGI in [7] was more than 100 µM; in experiment [8], more than 100 µM; in [9], more than 100 µM; in [10], more than 100 µM; in experiment [11] it was more than 100 µM; in [12], 96.8 µM. Moreover, the TGI in experiment [13] is more than 100 µM; in experiment [14] it was more than 100 µM; in experiment [15], 8.05 µM; in experiment [16], 20.4 µM; in experiment [17], more than 100 µM; in [18], more than 100 µM.
In the case of `CCCCCCCCCCCCCCCCCCNc1ccn(C2OC(COP(=O)(O)OCCCCCCCCCCCCCCCC)C(O)C2O)c(=O)n1` (configuration not stated), the TGI in experiment [1], in experiment [2], in experiment [3], in experiment [4], in experiment [5] and in experiment [6] was more than 100 µM each time. The TGI in experiment [7], in [8], in experiment [9], in experiment [10], in experiment [11] and in experiment [12] was more than 100 µM in each case. The TGI in experiment [13], in experiment [14], in experiment [15], in experiment [16], in experiment [17] and in experiment [18] was more than 100 µM throughout.
On to `Cc1nc(SCC(=O)Nc2ccccc2)c2sc(=S)n(-c3ccccc3)c2n1`, for which the total growth inhibition concentration (TGI) in [1], in [2], in experiment [3], in experiment [4], in experiment [5] and in experiment [6] was more than 10 µM in each case. In addition, the TGI in experiment [7], in experiment [8], in [9], in experiment [10], in experiment [11] and in [12] was more than 10 µM in each case. The TGI in experiment [13], in experiment [14], in experiment [15], in experiment [16], in experiment [17] and in [18] was more than 10 µM each time.
Regarding `CCN(CC)CC1CCCCN1CC(=O)N1c2ccc(Br)cc2C(=O)Nc2cccnc21` (configuration not stated), the TGI in experiment [1], in experiment [2], in experiment [3], in experiment [4], in [5] and in [6] was more than 100 µM in each case. Besides, the TGI is more than 100 µM in experiment [7]; more than 100 µM in experiment [8]; more than 100 µM in experiment [9]; more than 100 µM in experiment [10]; more than 100 µM in experiment [11]; 59.4 µM in [12]. Moreover, the TGI in experiment [13], in experiment [14], in experiment [15], in experiment [16], in [17] and in experiment [18] was more than 100 µM throughout.
In the case of `COc1ccc(Oc2nc3cc(C(F)(F)F)ccc3nc2C(C)C)cc1`, the TGI in [1] was more than 100 µM; in experiment [2], 79 µM; in experiment [3], 54.9 µM; in experiment [4], more than 100 µM; in experiment [5] it was 50.1 µM; in [6], 38.5 µM. The TGI is 39.5 µM in [7]; more than 100 µM in experiment [8]; 42.4 µM in [9]; 40.7 µM in experiment [10]; more than 100 µM in experiment [11]; 95.7 µM in experiment [12]. Moreover, the total growth inhibition concentration (TGI) in experiment [13] was more than 100 µM; in experiment [14] it was more than 100 µM; in experiment [15] it was 41.5 µM; in [16], 73.9 µM; in experiment [17], more than 100 µM; in experiment [18], 36.6 µM.
For the molecule `COc1ccc(C(=O)N=C2N(c3ccccc3)C(=Nc3ccccc3)C(=Nc3ccccc3)N2c2ccccc2)cc1`, the TGI in experiment [1] was more than 100 µM; in experiment [2], more than 100 µM; in experiment [3], 15 µM; in experiment [4], more than 100 µM; in [5], more than 100 µM; in experiment [6] it was 98.1 µM. Further, the TGI in experiment [7] was more than 100 µM; in experiment [8] it was more than 100 µM; in experiment [9], more than 100 µM; in experiment [10] it was 25.8 µM; in [11] it was more than 100 µM; in experiment [12], 27.2 µM. In addition, the TGI in experiment [13] was more than 65.5 µM; in experiment [14], 87.3 µM; in experiment [15], more than 100 µM; in experiment [16], more than 100 µM; in [17] it was more than 100 µM; in experiment [18] it was more than 100 µM.
For the molecule `COc1ccc(OC)c2c1C(=O)C(Cl)=C(Cl)C2=O`, the TGI in [1] is 6.9 µM; in [2], 6.57 µM; in experiment [3], 8.14 µM; in experiment [4] it was more than 77.4 µM; in experiment [5], 21.9 µM; in experiment [6] it was 8.73 µM. For the same molecule, the TGI is 10.4 µM in [7]; 7.99 µM in experiment [8]; more than 27.6 µM in experiment [9]; 3.65 µM in [10]; 27 µM in experiment [11]; 29.1 µM in [12]. Also, the TGI is 27.6 µM in [13]; 13 µM in experiment [14]; 31.2 µM in [15]; 4.68 µM in experiment [16]; more than 100 µM in experiment [17]; more than 88 µM in experiment [18].
Regarding `COC(=O)c1c(C)cccc1C1CN=NC12Cc1c(C)cccc1C2=O` (configuration not stated), the TGI is more than 100 µM in experiment [1]; more than 100 µM in experiment [2]; more than 100 µM in [3]; more than 100 µM in [4]; 79.7 µM in experiment [5]; more than 100 µM in [6]. Also, the TGI in [7], in [8], in experiment [9], in experiment [10], in experiment [11] and in experiment [12] was more than 100 µM in each case. The TGI in [13], in [14], in experiment [15], in experiment [16], in experiment [17] and in experiment [18] was more than 100 µM in each case.
Regarding `COc1ccc(-c2c(N)n(-c3cc(OC)cc(OC)c3)c(=O)c3cc([N+](=O)[O-])ccc23)cc1`, the TGI in [1] was more than 100 µM; in [2], more than 100 µM; in [3], 34.1 µM; in experiment [4], 99.5 µM; in experiment [5] it was more than 100 µM; in [6] it was more than 100 µM. For the same molecule, the TGI is more than 100 µM in [7]; more than 31.6 µM in experiment [8]; more than 100 µM in [9]; more than 100 µM in experiment [10]; more than 100 µM in experiment [11]; more than 100 µM in experiment [12]. Moreover, the TGI in experiment [13], in experiment [14], in experiment [15], in experiment [16], in experiment [17] and in experiment [18] was more than 100 µM in each case.
